Assay results as given in patent US20220056019A1, “FARNESOID X RECEPTOR AGONISTS AND USES THEREOF” (Metacrine, Inc., priority 2018, published 2022).

Biological target: T1, hFXR (Homo sapiens, UniProt Q96RI1)
T1 construct: expressed in transfected cells; host or cells: CV-1 cells
T1 sequence (Q96RI1 1-486): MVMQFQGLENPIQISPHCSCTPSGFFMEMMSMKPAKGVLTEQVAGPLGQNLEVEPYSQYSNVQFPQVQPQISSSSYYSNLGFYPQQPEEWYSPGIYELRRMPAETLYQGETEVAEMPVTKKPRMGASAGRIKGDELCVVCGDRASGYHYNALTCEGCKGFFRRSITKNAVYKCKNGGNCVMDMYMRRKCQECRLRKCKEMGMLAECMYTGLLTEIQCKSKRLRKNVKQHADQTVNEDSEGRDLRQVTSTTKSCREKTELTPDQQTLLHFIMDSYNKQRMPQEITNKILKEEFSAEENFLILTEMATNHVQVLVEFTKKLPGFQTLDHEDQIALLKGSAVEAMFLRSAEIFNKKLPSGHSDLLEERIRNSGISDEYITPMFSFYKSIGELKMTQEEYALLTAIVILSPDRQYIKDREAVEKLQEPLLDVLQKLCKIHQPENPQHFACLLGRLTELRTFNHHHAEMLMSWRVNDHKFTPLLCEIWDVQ
T1 sequence (P19793 1-462 partner): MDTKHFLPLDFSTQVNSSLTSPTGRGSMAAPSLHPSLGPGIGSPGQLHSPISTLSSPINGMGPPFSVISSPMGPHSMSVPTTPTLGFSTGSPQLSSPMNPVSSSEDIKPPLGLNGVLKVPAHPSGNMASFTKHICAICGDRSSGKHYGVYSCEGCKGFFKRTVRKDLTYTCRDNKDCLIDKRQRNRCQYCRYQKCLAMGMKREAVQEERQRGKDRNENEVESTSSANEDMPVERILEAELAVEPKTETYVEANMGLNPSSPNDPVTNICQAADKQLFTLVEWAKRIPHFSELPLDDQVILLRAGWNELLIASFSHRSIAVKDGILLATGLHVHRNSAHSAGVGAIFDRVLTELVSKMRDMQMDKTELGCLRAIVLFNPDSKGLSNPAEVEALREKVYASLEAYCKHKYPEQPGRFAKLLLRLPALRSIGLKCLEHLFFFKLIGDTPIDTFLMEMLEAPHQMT
Assay: In Vitro FXR Assay (TK): TK-ECRE-luc reporter in transfected CV-1 cells
Assay type: cell-based
Conditions: 18 hrs incubation, luminescence
Outline: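 CV-1 cells transiently cotransfected with hFXR, hRXR, TK-ECRE-luc reporter and pCMX-YFP plasmids in charcoal-stripped serum medium. Serially diluted compounds added for 18 h at 37° C., then cells lysed and luciferase luminescence measured.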

`COc1ccc(C23CCC(CN(c4cc(-c5cnn(C6(C)CCC6)c5)ccn4)C(=O)[C@H]4CC[C@H](OC(=O)NCCO)CC4)(CC2)CC3)cc1C` [Compound 25.16, 4-(((4-(4-Methoxy-3-methylphenyl)bicyclo[2.2.2]octan-1-yl)methyl)(4-(1-(1-methylcyclobutyl)-1H-pyrazol-4-yl)pyridin-2-yl)carbamoyl)(trans-cyclohexyl)(2-hydroxyethyl)carbamate] was tested, and the EC50 was ≤ 50 nM.

In the case of `COc1ccc(C23CCC(CN(c4cc(-c5cnn(C(C)C)c5)ccn4)C(=O)[C@H]4CC[C@H](OC(=O)NCCCCO)CC4)(CC2)CC3)cc1C` [Compound 4.50, 4-((4-(1-Isopropyl-1H-pyrazol-4-yl)pyridin-2-yl) ((4-(4-methoxy-3-methylphenyl)bicyclo [2.2.2]octan-1-yl)methyl)carbamoyl)cyclohexyl(4-hydroxybutyl)trans-carbamate], the EC50 is reported as ≤ 50 nM.

In the case of `COc1ccc([C@H]2CC[C@H](CN(c3cc(-c4cnc(C5CC5)s4)ccn3)C(=O)[C@H]3CC[C@H](OC(=O)NC4COC4)CC3)CC2)cc1C` [Compound 2.54, trans-4-((4-(2-Cyclopropylthiazol-5-yl)pyridin-2-yl)(((trans)-4-(4-methoxy-3-methylphenyl)cyclohexyl)methyl)carbamoyl)cyclohexyl oxetan-3-ylcarbamate], the EC50 is reported as ≤ 50 nM.

For `COc1ccc(C23CCC(CN(c4cc(-c5cnn(C(C)C)c5)ccn4)C(=O)[C@H]4CC[C@H](NC(=O)OC5CCOCC5)CC4)(CC2)CC3)cc1C` [Compound 7.03, (trans)-Tetrahydro-2H-pyran-4-yl (4-((4-(1-isopropyl-1H-pyrazol-4-yl)pyridin-2-yl)((4-(4-methoxy-3-methylphenyl)bicyclo[2.2.2]octan-1-yl)methyl)carbamoyl)cyclohexyl) carbamate], the EC50 was ≤ 50 nM.

With `COc1ccc(C23CCC(CN(c4cccc(-n5cnc(C6CC6)c5)c4)C(=O)[C@H]4CC[C@H](OC(=O)N5CC(O)C5)CC4)(CC2)CC3)cc1C` [Compound 4.58, 4-((3-(4-Cyclopropyl-1H-imidazol-1-yl)phenyl) ((4-(4-methoxy-3-methylphenyl)bicyclo [2.2.2]octan-1-yl)methyl)carbamoyl)cyclohexyl trans-3-hydroxyazetidine-1-carboxylate] the EC50 was ≤ 50 nM.

For `CCc1ncc(-c2ccnc(N(CC34CCC(c5ccc(OC)c(C)c5)(CC3)CC4)C(=O)[C@H]3CC[C@H](OC(=O)N4CC(CO)C4)CC3)c2)s1` [Compound 4.37, 4-((4-(2-Ethylthiazol-5-yl)pyridin-2-yl)((4-(4-methoxy-3-methylphenyl)bicyclo[2.2.2]octan-1-yl)methyl)carbamoyl) cyclohexyl3-(hydroxymethyl)azetidine- trans-1-carboxylate], the EC50 was 50 to 1000 nM.

In the case of `COc1ncc([C@H]2CC[C@H](CN(c3cc(-c4coc(C5CC5)n4)ccn3)C(=O)[C@H]3CC[C@H](OC(=O)N4CCN(C)CC4)CC3)CC2)cc1C` [Compound 1.03, trans-4-((4-(2-Cyclopropyloxazol-4-yl)pyridin-2-yl)(((trans)-4-(6-methoxy-5-methylpyridin-3-yl)cyclohexyl)methyl)carbamoyl)cyclohexyl 4-methylpiperazine-1-carboxylate], the EC50 is reported as ≤ 50 nM.

`COc1ccc([C@H]2CC[C@H](CN(c3cc(-c4cnn(C(C)C)c4)ccn3)C(=O)[C@H]3CC[C@H](OC(=O)N4CC(CO)C4)CC3)CC2)cc1C` [Compound 2.03, trans-4-((4-(1-Isopropyl-1H-pyrazol-4-yl)pyridin-2-yl)(((trans)-4-(4-methoxy-3-methylphenyl)cyclohexyl)methyl)carbamoyl)cyclohexyl 3-(hydroxymethyl) azetidine-1-carboxylate] was tested, and the EC50 was ≤ 50 nM.

`COc1ccc([C@H]2CC[C@H](CN(c3cc(-c4cnn(C(C)C)c4)ccn3)C(=O)[C@H]3CC[C@H](OC(=O)NCC(F)(F)CO)CC3)CC2)cc1C` [Compound 2.34, trans-4-((4-(1-Isopropyl-1H-pyrazol-4-yl)pyridin-2-yl)(((trans)-4-(4-methoxy-3-methylphenyl)cyclohexyl)methyl)carbamoyl) cyclohexyl(2,2-difluoro-3-hydroxypropyl)carbamate] was tested, and the EC50 was ≤ 50 nM.

In the case of `COc1ccc([C@H]2CC[C@H](CN(c3cc(-c4cnc(C5CC5)s4)ccn3)C(=O)[C@H]3CC[C@H](OC(=O)NCC(C)(C)O)CC3)CC2)cc1C` [Compound 2, trans-4-((4-(2-Cyclopropylthiazol-5-yl)pyridin-2-yl)(((trans)-4-(4-methoxy-3-methylphenyl)cyclohexyl)methyl)carbamoyl)cyclohexyl (2-hydroxy-2-methylpropyl)carbamate], the EC50 is reported as ≤ 50 nM.

`COc1ccc([C@H]2CC[C@H](CN(c3cccc(-c4cnn(C(C)C)c4)c3)C(=O)[C@H]3CC[C@H](NC(=O)C(C)C)CC3)CC2)cc1C` [Compound 10.06, trans-4-Isobutyramido-N-(3-(1-isopropyl-1H-pyrazol-4-yl)phenyl)-N-((trans-4-(4-methoxy-3-methylphenyl)cyclohexyl)methyl) cyclohexanecarboxamide] was tested, and the EC50 was ≤ 50 nM.

For `COc1ccc(C23CCC(CN(c4cc(-c5cnn(C6CCCC6)c5)ccn4)C(=O)[C@H]4CC[C@H](OC(=O)N5CC(CO)C5)CC4)(CC2)CC3)cc1C` [Compound 23.09, 4-((4-(1-Cyclopentyl-1H-pyrazol-4-yl)pyridin-2-yl)((4-(4-methoxy-3-methylphenyl)bicyclo[2.2.2]octan-1-yl)methyl)carba-moyl)(trans-cyclohexyl) 3-(hydroxymethyl)azetidine-1-carboxylate], the EC50 was ≤ 50 nM.

For `COc1ccc(C23CCC(CN(c4cc(-c5cnn(C(C)C)c5)ccn4)C(=O)[C@H]4CC[C@H](NC(=O)OCCO)CC4)(CC2)CC3)cc1C` [Compound 7, (trans)-2-Hydroxyethyl (4-((4-(1-isopropyl-1H-pyrazol-4-yl)pyridine-2-yl)((4-(4-methoxy-3-methylphenyl)bicyclo[2.2.2]octan-1-yl)methyl)carbamoyl)cyclohexyl)carbamate], the EC50 was ≤ 50 nM.

For `COc1ccc([C@H]2CC[C@H](CN(c3cc(-c4cnn(C(C)C)c4)ccn3)C(=O)[C@H]3CC[C@H](OC(=O)N4CC(S(C)(=O)=O)C4)CC3)CC2)cc1C` [Compound 2.12, trans-4-((4-(1-Isopropyl-1H-pyrazol-4-yl)pyridin-2-yl)(((trans)-4-(4-methoxy-3-methylphenyl)cyclohexyl)methyl)carbamoyl) cyclohexyl 3-(methylsulfonyl)azetidine-1-carboxylate], the EC50 was ≤ 50 nM.

`COc1ccc([C@H]2CC[C@H](CN(c3cc(-c4cnn(C(C)C)c4)ccn3)C(=O)[C@H]3CC[C@H](OC(=O)NCC(C)F)CC3)CC2)cc1C` (stereo partly drawn) [Compound 2.28, trans-4-((4-(1-Isopropyl-1H-pyrazol-4-yl)pyridin-2-yl)(((trans)-4-(4-methoxy-3-methylphenyl)cyclohexyl)methyl)carbamoyl) cyclohexyl(2-fluoropropyl)carbamate] was tested, and the EC50 was ≤ 50 nM.

`CCc1ncc(-c2ccnc(N(C[C@H]3CC[C@H](c4ccc(OC)c(C)c4)CC3)C(=O)[C@H]3CC[C@H](OC(=O)N4CC(O)C4)CC3)c2)s1` [Compound 2.42, trans-4-((4-(2-Ethylthiazol-5-yl)pyridin-2-yl)((trans-4-(4-methoxy-3-methylphenyl)cyclohexyl)methyl)carbamoyl)cyclohexyl 3-hydroxyazetidine-1-carboxylate] was tested, and the EC50 was ≤ 50 nM.

With `COc1ccc(C23CCC(CN(c4cc(-n5cnc(C6CC6)n5)ccn4)C(=O)[C@H]4CC[C@H](OC(=O)N5CC(O)C5)CC4)(CC2)CC3)cc1C` [Compound 4.17, 4-((4-(3-Cyclopropyl-1H-t1,2,4-riazol-1-yl)pyridin-2-yl)((4-(4-methoxy-3-methylphenyl)bicyclo [2.2.2]octan-1-yl)methyl)carbamoyl)cyclohexyl 3-hydroxyazetidine-trans-1-carboxylate] the EC50 was ≤ 50 nM.

With `COc1ccc([C@H]2CC[C@H](CN(c3cc(-c4cnn(C(C)C)c4)ccn3)C(=O)[C@H]3CC[C@H](OC(=O)NCCCO)CC3)CC2)cc1C` [Compound 2.19, trans-4-((4-(1-Isopropyl-1H-pyrazol-4-yl)pyridin-2-yl) ((trans-4-(4-methoxy-3-methylphenyl)cyclohexyl)methyl)carbamoyl) cyclohexyl(3-hydroxypropyl)carbamate] the EC50 was ≤ 50 nM.

For `COc1ccc([C@H]2CC[C@H](CN(c3cccc(-c4cnn(C(C)C)c4)c3)C(=O)[C@H]3CC[C@H](NC(=O)OC4CCOCC4)CC3)CC2)cc1C` [Compound 6.06, Tetrahydro-2H-pyran-4-yl (trans-4-((3-(1-isopropyl-1H-pyrazol-4-yl)phenyl)((trans-4-(4-methoxy-3-methylphenyl)cyclohexyl)meth-yl)carbamoyl)cyclohexyl)carbamate], the EC50 was ≤ 50 nM.
